Results published in patent US20230073512A1, “MODULATORS OF CULLIN 3 ADAPTOR KBTBD4 AS ANTI-CANCER COMPOUNDS” (UNIVERSITE DE MONTREAL, priority 2019, published 2023).
pIC50: −log10 of the molar value. Read-outs that look alike come from different tables or passages of the source. Each block holds one molecule with its values, some of them ahead of it. Residues, ends and D or L forms follow the SMILES beside them. *: point of attachment. Cbz = O=C(OCc1ccccc1)*

How the values were obtained:
[1] = tested on: H3K27Ac and H3K4me2 in OCI-AML5; assay: Flow cytometry of H3K27Ac, H3K4me2 and H3; format: cell-based; conditions: OCI-AML5, 24 hrs; UM171 250 nM, Panobinostat 5 nM, TCP 10 μM
[2] = tested on: CD201 and CD86 in OCI-AML1 cells; assay: Flow cytometry of CD201 and CD86 surface expression; format: cell-based; conditions: Panobinostat 5 nM, TCP 5 μM
Experimental: (§1) Mouse anti-human antibodies were used to detect CD34 (APC or BV421-BD Biosciences), CD45RA (PE-BD Biosciences), CD86 (PerCP-eFluor710-eBioscience), CD90 (PECY7- BioLegend), and CD201 (APC-BioLegend). Flow cytometry acquisitions were performed on a Canto II cytometer (BD Biosciences) and data analysis was performed using FowJo software (Tree Star, Ashland, Oreg., USA) and GraphPad Prism software. Dead cells were excluded using 7AAD staining.

[3] = tested on: CD201 and CD86 in OCI-AML5; assay: FACS analysis of CD201 and CD86; format: cell-based; conditions: OCI-AML5, 24 hrs; UM171 250 nM, Panobinostat 5 nM, TCP 10 μM
Experimental: as §1

CD34+ cord blood cells = conditions: 7 days culture, UM171 at 5 nM and LSD1 inhibitor (TCP)
Experimental: as §1

[4] = target: T1, RCOR1, LSD1, HDAC2 in OCI-AML1 cells (Homo sapiens, UniProt O60341+Q92769+Q9UKL0); assay: Western Blot of CoREST members; format: cell-based; conditions: OCI-AML1, UM171 250 nM plus MG132 10 μM or MLN2494 100 nM
T1 construct: nucleoplasmic proteins extracted from shLuc or shKBTBD4- transduced OCI-AML1 cells; endogenous in cells; host or cells: OCI-AML1 cells transduced with shLuc or shKBTBD4
Experimental: Representative blots (upper panel) showing KBTBD4, RCOR1, LSD1, HDAC2 and Nucleolin (NCL, loading control) protein levels. Quantification of RCOR1 protein levels were evaluated in 3 independent experiments (lower panel).
Representative blots (upper panel) showing CUL3, RCOR1 and TUBA (loading control) protein levels. Quantification of RCOR1 protein levels were evaluated in 2 independent experiments (lower panel).
(§2) Total protein extraction was performed in lysis buffer (25 mM tris ph7.5, 150 mM NaCl, 1% NP-40, protease inhibitors).

[5] = target: T2, RCOR1, LSD1, HDAC2 in CD34+ derived cord blood cells (Homo sapiens, UniProt O60341+Q92769+Q9UKL0); assay: Western Blot of CoREST members in CD34+ cells; format: cell-based; conditions: UM171 500 nM / MG132 5 μM, 4 hrs
T2 construct: total proteins extracted from d3 expanded CD34+ derived cord blood cells; endogenous in cells; host or cells: d3 expanded human CD34+ cord blood derived cells (primary)
Experimental: FIG. 15A illustrate a Western Blot analysis of total proteins extracted from d3 expanded CD34+ derived cord blood cells exposed to DMSO, UM171 (500 nM) or UM171/MG132 (5 μM) for 4 hrs. Representative blot showing KBTBD4, RCOR1, LSD1, HDAC2, CUL3 and TUBA as loading control.
as §2

CB = assay: Cell proliferation, CB sample of Table 2; conditions: read-out: Antineoplastic effect on cell proliferation, IC50
AML samples = assay: Cell proliferation of cancerous samples from patients

Structure (SMILES): N[C@@H]1C[C@H]1c1ccccc1 (racemic) [TCP, tranylcypromine]
- H3K27Ac and H3K4me2 marks [1]: induces
- CD86 expression in shKBTBD4 expressing cells [2]: induces
- CD201 and CD86 expression compared to DMSO [3]: upregulation
- CD34+, CD34+CD201+CD90+ and CD34+CD86+ subsets, combination with UM171 (CD34+ cord blood cells): synergistic effect

Structure (SMILES): CC(C)C[C@@H](C=O)NC(=O)[C@H](CC(C)C)NC(=O)[C@H](CC(C)C)NC(=O)OCc1ccccc1 [MG132] (Cbz-Leu-Leu-Leu-aldehyde)
- UM171-induced loss of RCOR1 under co-treatment [4]: reduced
- UM171-induced loss of LSD1 and RCOR1 proteins under co-treatment [5]: abolishes the loss

- UM171-induced loss of RCOR1 under co-treatment [4]: normal
Structure (SMILES): NS(=O)(=O)OC[C@@H]1C[C@@H](n2ccc3c(N[C@H]4CCc5ccccc54)ncnc32)C[C@@H]1O [MLN2494]

- pIC50 (AML samples; read-out: Antineoplastic effect on cell proliferation, IC50, AML sample 04H063): 5.00 to 6.00
- pIC50 (AML samples; read-out: Antineoplastic effect on cell proliferation, IC50, AML sample 05H094): 5.00 to 6.00
- pIC50 (AML samples; read-out: Antineoplastic effect on cell proliferation, IC50, AML sample 05H149): 5.00 to 6.00
- pIC50 (AML samples; read-out: Antineoplastic effect on cell proliferation, IC50, AML sample 06H045): 5.00 to 6.00
- pIC50 (AML samples; read-out: Antineoplastic effect on cell proliferation, IC50, AML sample 06H088): 5.00 to 6.00
- pIC50 (AML samples; read-out: Antineoplastic effect on cell proliferation, IC50, AML sample 06H117): 5.00 to 6.00
- pIC50 (AML samples; read-out: Antineoplastic effect on cell proliferation, IC50, AML sample 07H005): 5.00 to 6.00
- pIC50 (AML samples; read-out: Antineoplastic effect on cell proliferation, IC50, AML sample 07H038): 5.00 to 6.00
- pIC50 (AML samples; read-out: Antineoplastic effect on cell proliferation, IC50, AML sample 07H045): 5.00 to 6.00
- pIC50 (AML samples; read-out: Antineoplastic effect on cell proliferation, IC50, AML sample 07H125): 5.00 to 6.00
- pIC50 (AML samples; read-out: Antineoplastic effect on cell proliferation, IC50, AML sample 07H135): 5.00 to 6.00
- pIC50 (AML samples; read-out: Antineoplastic effect on cell proliferation, IC50, AML sample 07H151): 5.00 to 6.00
- pIC50 (AML samples; read-out: Antineoplastic effect on cell proliferation, IC50, AML sample 08H018): 5.00 to 6.00
- pIC50 (AML samples; read-out: Antineoplastic effect on cell proliferation, IC50, AML sample 09H010): 5.00 to 6.00
- pIC50 (AML samples; read-out: Antineoplastic effect on cell proliferation, IC50, AML sample 09H046): 5.00 to 6.00
- pIC50 (AML samples; read-out: Antineoplastic effect on cell proliferation, IC50, AML sample 09H079): 5.00 to 6.00
- pIC50 (AML samples; read-out: Antineoplastic effect on cell proliferation, IC50, AML sample 09H115): 5.00 to 6.00
- pIC50 (AML samples; read-out: Antineoplastic effect on cell proliferation, IC50, AML sample 10H022): 5.00 to 6.00
- pIC50 (AML samples; read-out: Antineoplastic effect on cell proliferation, IC50, AML sample 10H127): 5.00 to 6.00
- pIC50 (AML samples; read-out: Antineoplastic effect on cell proliferation, IC50, AML sample 11H002): 5.00 to 6.00
- pIC50 (AML samples; read-out: Antineoplastic effect on cell proliferation, IC50, AML sample 11H046): 5.00 to 6.00
- pIC50 (AML samples; read-out: Antineoplastic effect on cell proliferation, IC50, AML sample 11H103): 5.00 to 6.00
- pIC50 (AML samples; read-out: Antineoplastic effect on cell proliferation, IC50, AML sample 12H045): 5.00 to 6.00
- pIC50 (AML samples; read-out: Antineoplastic effect on cell proliferation, IC50, AML sample 12H058): 5.00 to 6.00
- pIC50 (AML samples; read-out: Antineoplastic effect on cell proliferation, IC50, AML sample 12H096): 5.00 to 6.00
- pIC50 (AML samples; read-out: Antineoplastic effect on cell proliferation, IC50, AML sample 12H106): 5.00 to 6.00
- pIC50 (AML samples; read-out: Antineoplastic effect on cell proliferation, IC50, AML sample 12H151): 5.00 to 6.00
- pIC50 (AML samples; read-out: Antineoplastic effect on cell proliferation, IC50, AML sample 13H100): 5.00 to 6.00
- pIC50 (AML samples; read-out: Antineoplastic effect on cell proliferation, IC50, AML sample 13H150): 5.00 to 6.00
Structure (SMILES): COC(=O)c1ccc2[nH]c3nc(Cc4ccccc4)nc(NCCCN4CCCCC4)c3c2c1 [UM134]
- pIC50 (CB): 5.00 to 6.00
